Patent US6335330B1, “Crystalline pharmaceutical product” (SmithKline Beecham Corporation, priority 1996, dated 2002)
Structures can show the parent of a compound that is named as a salt. Where two headings read alike, the source gives them in different places.

Key:
Assay type in all cases: physicochemical
Solubility in water = test: Solubility in water
[1] = Hygroscopicity / water content (Karl Fischer analysis)
Description: The present invention provides (S)-7-[(4,4′-bipiperidin- 1-yl)carbonyl]-2,3,4,5-tetrahydro-4-methyl-3-oxo-1H-1,4-benzodiazepine-2-acetic acid, hydrochloride, formula (I), as a novel material, and, in particular, as a pharmaceutically acceptable form. The material crystallizes preferably with one mole of HCl, and appears to exist in a generally anhydrous form. Although small amounts of water may be detected by Karl Fischer analysis, this is generally less than 1-2% w/w of the drug substance, and it appears to be consistent irrespective of the storage conditions. […] Accordingly, the hydrochloride salt form offers significant advantages for bulk material consistency, handling, and formulation.

[2] = Thermal stability of solid samples (3 days at 100° C., hplc); settings: for increase in organic impurities: hplc, by area
[3] = Thermal stability over an extended period (shelf life); settings: impairs shelf life

SMILES: CN1Cc2cc(C(=O)N3CCC(C4CCNCC4)CC3)ccc2N[C@@H](CC(=O)O)C1=O [HCl Salt, (S)-7-[(4,4′-bipiperidin-1-yl)carbonyl]-2,3,4,5-tetrahydro-4-methyl-3-oxo-1H-1,4-benzodiazepine-2-acetic acid, hydrochloride]
- dissolution and solubility in water (in words) (Solubility in water): enhanced dissolution and solubility in water
- solubility in water relative to the zwitterion (Solubility in water): about ten
- water detected by Karl Fischer analysis ([1]; consistent irrespective of the storage conditions): 1-2 % w/w
- Hygroscopicity (% w/w Karl Fischer analysis) ([1]; t = 0, hydrochloride): 0.9 % w/w
- Hygroscopicity (% w/w Karl Fischer analysis) ([1]; t = 21 days, hydrochloride): 0.8 % w/w
- increase in organic impurities ([2]; hydrochloride): no increase
- Thermal Stability ([2]; hydrochloride): Stable

SMILES: CN1Cc2cc(C(=O)N3CCC(C4CCNCC4)CC3)ccc2N[C@@H](CC(=O)O)C1=O [Zwitterion, (S)-7-[(4,4′-bipiperidin-1-yl)carbonyl]-2,3,4,5-tetrahydro-4-methyl-3-oxo-1H-1,4-benzodiazepine-2-acetic acid]
- water taken up on equilibration ([1]; equilibrating species): about six
- hygroscopicity (in words) ([1]; material prepared according to WO 95/18619): hygroscopic
- Hygroscopicity (% w/w Karl Fischer analysis) ([1]; t = 0): 5.6 % w/w
- Hygroscopicity (% w/w Karl Fischer analysis) ([1]; t = 21 days): 20.1 % w/w
- Thermal Stability [2]: some degradation,
- increase in organic impurities [2]: impurities by 1.3% (hplc,

SMILES: CN1Cc2cc(C(=O)N3CCC(C4CCNCC4)CC3)ccc2N[C@@H](CC(=O)O)C1=O [trifluoroacetate salt]
- thermal stability for an extended period [3]: not thermally stable for an extended period
